Data taken from patent US20040063662A1, “Selenophene anti-tumor agents” (priority 1996, published 2004).

Assays:
[1] = tested on: HCC-2998; test: NCI human tumor cell panel: HCC-2998 (Colon Cancer); format: cell-based; conditions: HCC-2998, Colon Cancer; for GI50: read-out: Log10 GI50 (converted)
[2] = tested on: HCT-116; test: NCI human tumor cell panel: HCT-116 (Colon Cancer); format: cell-based; conditions: HCT-116, Colon Cancer; for GI50: read-out: Log10 GI50 (converted); for IC (TGI): read-out: Log10 TGI (converted)
[3] = tested on: MCF7; test: NCI human tumor cell panel: MCF7 (Breast Cancer); format: cell-based; conditions: MCF7, Breast Cancer; for GI50: read-out: Log10 GI50 (converted); for IC (TGI): read-out: Log10 TGI (converted)
[4] = tested on: SK-MEL-5; test: NCI human tumor cell panel: SK-MEL-5 (Melanoma); format: cell-based; conditions: SK-MEL-5, Melanoma; for GI50: read-out: Log10 GI50 (converted); for IC (TGI): read-out: Log10 TGI (converted)
[5] = tested on: HOP-62; test: NCI human tumor cell panel: HOP-62 (Non-Small Cell Lung Cancer); format: cell-based; conditions: HOP-62, Non-Small Cell Lung Cancer; for GI50: read-out: Log10 GI50 (converted); for IC (TGI): read-out: Log10 TGI (converted)
[6] = tested on: HL-60(TB); test: NCI human tumor cell panel: HL-60(TB) (Leukemia); format: cell-based; conditions: Leukemia; for GI50: read-out: Log10 GI50 (converted); for IC (TGI): read-out: Log10 TGI
[7] = tested on: T-47D; test: NCI human tumor cell panel: T-47D (Breast Cancer); format: cell-based; conditions: T47D, Breast Cancer; for GI50: read-out: Log10 GI50 (converted); for IC (TGI): read-out: Log10 TGI (converted)
[8] = tested on: NCI-H226; test: NCI human tumor cell panel: NCI-H226 (Non-Small Cell Lung Cancer); format: cell-based; conditions: NCI-H226, Non-Small Cell Lung Cancer; for GI50: read-out: Log10 GI50 (converted); for IC (TGI): read-out: Log10 TGI (converted)
[9] = tested on: RXF-393; test: NCI human tumor cell panel: RXF-393 (Renal Cancer); format: cell-based; conditions: RXF-393, Renal Cancer; for GI50: read-out: Log10 GI50 (converted); for IC (TGI): read-out: Log10 TGI (converted)
[10] = tested on: SNB-75; test: NCI human tumor cell panel: SNB-75 (CNS Cancer); format: cell-based; conditions: SNB-75, CNS Cancer; for GI50: read-out: Log10 GI50 (converted)
[11] = tested on: panel of sixty different human tumor cell lines; test: NCI human tumor cell panel: whole panel (mean graph summary); conditions: for GI50 / CC50: Homo sapiens; for GI50: read-out: Log10 GI50, cell line not given (converted); for CC50: read-out: Log10 LC50, cell line not given (converted); for Log10 TGI: cell line not given
[12] = tested on: MDA-MB-231/ATCC; test: NCI human tumor cell panel: MDA-MB-231/ATCC (Breast Cancer); format: cell-based; conditions: Homo sapiens, MDA-MB-231, MDA-MB-231/ATCC, Breast Cancer
[13] = tested on: MDA-N; test: NCI human tumor cell panel: MDA-N (Breast Cancer); format: cell-based; conditions: Breast Cancer; for GI50: read-out: Log10 GI50 (converted); for IC (TGI): read-out: Log10 TGI (converted)
[14] = tested on: U251; test: NCI human tumor cell panel: U251 (CNS Cancer); format: cell-based; conditions: U-251, U251, CNS Cancer; for GI50: read-out: Log10 GI50 (converted); for IC (TGI): read-out: Log10 TGI (converted)
[15] = tested on: CCRF-CEM; test: NCI human tumor cell panel: CCRF-CEM (Leukemia); format: cell-based; conditions: Leukemia; for GI50: read-out: Log10 GI50 (converted); for IC (TGI): read-out: Log10 TGI (converted)
[16] = tested on: MOLT-4; test: NCI human tumor cell panel: MOLT-4 (Leukemia); format: cell-based; conditions: MOLT-4, Leukemia; for GI50: read-out: Log10 GI50 (converted); for IC (TGI): read-out: Log10 TGI (converted)
[17] = tested on: SF-268; test: NCI human tumor cell panel: SF-268 (CNS Cancer); format: cell-based; conditions: SF-268, CNS Cancer; for GI50: read-out: Log10 GI50 (converted); for IC (TGI): read-out: Log10 TGI (converted)
[18] = tested on: SK-OV-3; test: NCI human tumor cell panel: SK-OV-3 (Ovarian Cancer); format: cell-based; conditions: SK-OV-3, Ovarian Cancer; for GI50: read-out: Log10 GI50 (converted); for IC (TGI): read-out: Log10 TGI (converted)
[19] = tested on: SK-MEL-2; test: NCI human tumor cell panel: SK-MEL-2 (Melanoma); format: cell-based; conditions: SK-MEL-2, Melanoma; for GI50: read-out: Log10 GI50 (converted); for IC (TGI): read-out: Log10 TGI (converted)
[20] = tested on: UACC-62; test: NCI human tumor cell panel: UACC-62 (Melanoma); format: cell-based; conditions: UACC-62, Melanoma; for GI50: read-out: Log10 GI50 (converted); for IC (TGI): read-out: Log10 TGI (converted)
[21] = tested on: SN12C; test: NCI human tumor cell panel: SN12C (Renal Cancer); format: cell-based; conditions: Renal Cancer; for GI50: read-out: Log10 GI50 (converted); for IC (TGI): read-out: Log10 TGI (converted)
[22] = tested on: SW-620; test: NCI human tumor cell panel: SW-620 (Colon Cancer); format: cell-based; conditions: SW-620, Colon Cancer; for IC (TGI): read-out: Log10 TGI (converted)
[23] = tested on: DU-145; test: NCI human tumor cell panel: DU-145 (Prostate Cancer); format: cell-based; conditions: DU-145, Prostate Cancer; for GI50: read-out: Log10 GI50 (converted); for IC (TGI): read-out: Log10 TGI (converted)
[24] = tested on: NCI-H23; test: NCI human tumor cell panel: NCI-H23 (Non-Small Cell Lung Cancer); format: cell-based; conditions: NCI-H23, Non-Small Cell Lung Cancer; for GI50: read-out: Log10 GI50 (converted); for IC (TGI): read-out: Log10 TGI (converted)
[25] = tested on: M14; test: NCI human tumor cell panel: M14 (Melanoma); format: cell-based; conditions: M14, Melanoma; for GI50: read-out: Log10 GI50 (converted); for IC (TGI): read-out: Log10 TGI (converted)
[26] = tested on: HCT-15; test: NCI human tumor cell panel: HCT-15 (Colon Cancer); format: cell-based; conditions: HCT-15, Colon Cancer; for GI50: read-out: Log10 GI50 (converted)
[27] = tested on: HT29; test: NCI human tumor cell panel: HT29 (Colon Cancer); format: cell-based; conditions: HT-29, HT29, Colon Cancer; for GI50: read-out: Log10 GI50 (converted); for IC (TGI): read-out: Log10 TGI (converted)
[28] = tested on: COLO 205; test: NCI human tumor cell panel: COLO 205 (Colon Cancer); format: cell-based; conditions: COLO 205, Colon Cancer
[29] = read-out: Log10 TGI (converted)
[30] = read-out: Log10 GI50 (converted)

OCc1ccc(-c2ccc(-c3cccs3)[se]2)s1 [NSC 675344]
GI50 [1]: 257 nM
IC (TGI) [1, 29]: 1.62 µM
GI50 [2]: < 10 nM
IC (TGI) [2]: 0.0417 µM
GI50 [3]: 126 nM
IC (TGI) [3]: > 100 µM
GI50 [4]: > 100 µM
IC (TGI) [4]: > 100 µM
GI50 [5]: 34.7 µM
IC (TGI) [5]: > 100 µM
GI50 [6]: > 100 µM
IC (TGI) [6]: > 100 µM
GI50 [7]: 0.617 µM
IC (TGI) [7]: > 100 µM
GI50 [8]: < 10 nM
IC (TGI) [8]: < 0.01 µM
GI50 [9]: 15.8 µM
IC (TGI) [9]: 52.5 µM
GI50 [10]: 16.6 µM
IC (TGI) [10, 29]: 49 µM
GI50 [11]: 87.1 nM
CC50 [11]: > 100 µM
Log10 TGI [11]: >−4.00
GI50 [12, 30]: 19.1 µM
IC (TGI) [12, 29]: > 100 µM
GI50 [13]: > 100 µM
IC (TGI) [13]: > 100 µM
GI50 [14]: 25.1 nM
IC (TGI) [14]: 26.3 µM
GI50 [15]: > 100 µM
IC (TGI) [15]: > 100 µM
GI50 [16]: > 100 µM
IC (TGI) [16]: > 100 µM
GI50 [17]: 23.4 µM
IC (TGI) [17]: > 100 µM
GI50 [18]: 16.6 µM
IC (TGI) [18]: > 100 µM
GI50 [19]: > 100 µM
IC (TGI) [19]: > 100 µM
GI50 [20]: < 10 nM
IC (TGI) [20]: 0.0141 µM
GI50 [21]: > 100 µM
IC (TGI) [21]: > 100 µM
GI50 [22, 30]: > 100 µM
IC (TGI) [22]: > 100 µM
GI50 [23]: 36.3 µM
IC (TGI) [23]: > 100 µM
GI50 [24]: 20.4 µM
IC (TGI) [24]: > 100 µM
GI50 [25]: > 100 µM
IC (TGI) [25]: > 100 µM
GI50 [26]: 0.0257 µM
GI50 [27]: > 100 µM
IC (TGI) [27]: > 100 µM

O=Cc1ccc(-c2ccc(-c3cccs3)[se]2)s1 [NSC 675346]
GI50 [1]: 234 nM
GI50 [2]: 115 nM
IC (TGI) [2]: > 100 µM
GI50 [3]: 813 nM
IC (TGI) [3]: > 100 µM
GI50 [4]: 46.8 µM
IC (TGI) [4]: > 100 µM
GI50 [5]: 64.6 µM
IC (TGI) [5]: > 100 µM
GI50 [6]: > 100 µM
IC (TGI) [6]: > 100 µM
GI50 [7]: 18.2 µM
IC (TGI) [7]: 40.7 µM
GI50 [8]: 17.4 nM
IC (TGI) [8]: 0.12 µM
GI50 [9]: 16.2 µM
IC (TGI) [9]: 42.7 µM
GI50 [10]: 13.8 µM
GI50 [11]: 1700 nM
CC50 [11]: > 100 µM
Log10 TGI [11]: >−4.00
GI50 [13]: > 100 µM
IC (TGI) [13]: > 100 µM
GI50 [14]: 57.5 nM
IC (TGI) [14]: 25.7 µM
GI50 [15]: > 100 µM
IC (TGI) [15]: > 100 µM
GI50 [16]: > 100 µM
IC (TGI) [16]: > 100 µM
GI50 [17]: 19.1 µM
IC (TGI) [17]: > 100 µM
GI50 [28, 30]: 4.79 µM
IC (TGI) [28, 29]: > 100 µM
GI50 [18]: 12.6 µM
IC (TGI) [18]: > 100 µM
GI50 [19]: 24.5 µM
IC (TGI) [19]: > 100 µM
GI50 [20]: < 10 nM
IC (TGI) [20]: 0.0282 µM
GI50 [21]: > 100 µM
IC (TGI) [21]: > 100 µM
IC (TGI) [22]: > 100 µM
GI50 [23]: 28.8 µM
IC (TGI) [23]: > 100 µM
GI50 [24]: 14.5 µM
IC (TGI) [24]: 58.9 µM
GI50 [25]: 28.2 µM
IC (TGI) [25]: > 100 µM
GI50 [26]: 18.6 µM
IC (TGI) [26, 29]: > 100 µM
GI50 [27]: > 100 µM
IC (TGI) [27]: > 100 µM
